Experimental data published in ChEMBL document CHEMBL1201862, “PubChem BioAssay data set” (2004).
The source made the active and inactive calls.

Key:
[1] = molecular target: Protein disulfide-isomerase (Homo sapiens, UniProt P07237); experiment: PDI inhibitors, insulin aggregation turbidity, dose response, biochemical, absorbance, cherry-picked samples (AID 602350); format: functional
[2] = blockers of SFLLRN-triggered platelet ATP secretion – cell-based, human platelets, luminescence, dry powder, dose response (AID 493100); format: functional
[3] = Luminescence Cell-Based Dose Response Follow up to Identify Inhibitors of Platelet Dense Granule Release. [Related pubchem assays (depositor defined):AID1663, AID1678, AID2398]; format: functional
[4] = molecular target: Inhibitor of nuclear factor kappa-B kinase subunit epsilon (Homo sapiens, UniProt Q14164); experiment: Navigating the Kinome. Panel member name: IKBKE; format: functional
Chain of Inhibitor of nuclear factor kappa-B kinase subunit epsilon (Q14164 whole entry): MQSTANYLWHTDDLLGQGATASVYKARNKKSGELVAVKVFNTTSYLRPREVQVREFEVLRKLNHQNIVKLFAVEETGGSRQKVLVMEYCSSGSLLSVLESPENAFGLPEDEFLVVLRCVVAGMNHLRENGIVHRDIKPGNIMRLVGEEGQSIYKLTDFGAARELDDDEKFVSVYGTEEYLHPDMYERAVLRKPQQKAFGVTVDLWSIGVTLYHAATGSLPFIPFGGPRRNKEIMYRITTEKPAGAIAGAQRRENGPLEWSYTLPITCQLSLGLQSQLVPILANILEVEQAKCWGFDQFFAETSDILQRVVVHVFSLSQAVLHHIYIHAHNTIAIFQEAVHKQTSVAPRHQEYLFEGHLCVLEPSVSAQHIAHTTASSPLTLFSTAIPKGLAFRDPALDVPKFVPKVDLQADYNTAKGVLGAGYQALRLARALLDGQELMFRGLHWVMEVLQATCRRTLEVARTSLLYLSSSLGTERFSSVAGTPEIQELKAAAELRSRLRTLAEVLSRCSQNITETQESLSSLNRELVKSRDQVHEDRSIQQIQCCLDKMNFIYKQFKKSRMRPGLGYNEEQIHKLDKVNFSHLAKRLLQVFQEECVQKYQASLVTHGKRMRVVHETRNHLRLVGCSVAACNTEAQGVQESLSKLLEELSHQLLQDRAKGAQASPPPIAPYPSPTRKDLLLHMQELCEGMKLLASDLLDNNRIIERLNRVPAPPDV

[5] = molecular target: High affinity nerve growth factor receptor (Homo sapiens, UniProt P04629); format: functional;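 note: NTRK1 tested as one member of a kinome-wide profiling panel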
Chain of High affinity nerve growth factor receptor (P04629 whole entry): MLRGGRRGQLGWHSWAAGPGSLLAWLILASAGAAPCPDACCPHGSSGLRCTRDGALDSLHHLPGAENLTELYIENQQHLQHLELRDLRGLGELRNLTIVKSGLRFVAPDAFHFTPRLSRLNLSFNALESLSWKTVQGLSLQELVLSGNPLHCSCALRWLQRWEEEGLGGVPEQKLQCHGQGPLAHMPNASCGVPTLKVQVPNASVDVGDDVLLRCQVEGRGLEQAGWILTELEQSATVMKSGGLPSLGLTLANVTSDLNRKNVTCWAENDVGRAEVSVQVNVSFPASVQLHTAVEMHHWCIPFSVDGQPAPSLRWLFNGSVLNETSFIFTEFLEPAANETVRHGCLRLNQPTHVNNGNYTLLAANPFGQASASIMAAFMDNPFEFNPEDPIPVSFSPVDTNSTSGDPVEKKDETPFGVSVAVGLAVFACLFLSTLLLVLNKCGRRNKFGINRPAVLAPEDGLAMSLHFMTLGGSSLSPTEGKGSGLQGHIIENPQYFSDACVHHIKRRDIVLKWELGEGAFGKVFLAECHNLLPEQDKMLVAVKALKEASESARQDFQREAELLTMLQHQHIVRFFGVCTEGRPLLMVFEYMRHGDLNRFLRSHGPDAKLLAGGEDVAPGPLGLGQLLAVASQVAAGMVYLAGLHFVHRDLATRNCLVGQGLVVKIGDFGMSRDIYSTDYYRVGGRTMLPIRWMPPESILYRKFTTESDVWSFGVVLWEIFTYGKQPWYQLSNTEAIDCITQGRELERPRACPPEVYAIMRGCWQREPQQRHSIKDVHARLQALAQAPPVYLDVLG

HEK293 [6] = experiment: cytotoxicity in HEK293T NF-kB-Luc cells, SAR follow-up, cytotoxicity control for NF-kB activator project, cell-based, resazurin fluorescence (AID 493251); format: functional; conditions: Homo sapiens
Jurkat = experiment: SAR Analysis of small molecule inhibitors of T-cell specific antigen receptor-induced NF-kB activation in a Jurkat cell line using a luminescence assay - Set 2. [Related pubchem assays (depositor defined):AID435003, AID435012, AID465]; format: functional, cell-based; conditions: Homo sapiens
HEK293 [7] = experiment: SAR Analysis of small molecule inhibitors of T-cell specific antigen receptor-induced NF-kB activation in a HEK-293T cell line using a luminescence assay - Set 2. [Related pubchem assays (depositor defined):AID435003, AID435012, AID489026]; format: functional, cell-based; conditions: Homo sapiens
[8] = molecular target: Platelet-derived growth factor receptor alpha (Homo sapiens, UniProt P16234); experiment: Navigating the Kinome. Panel member name: PDGFRA; format: functional
Chain of Platelet-derived growth factor receptor alpha (P16234 whole entry): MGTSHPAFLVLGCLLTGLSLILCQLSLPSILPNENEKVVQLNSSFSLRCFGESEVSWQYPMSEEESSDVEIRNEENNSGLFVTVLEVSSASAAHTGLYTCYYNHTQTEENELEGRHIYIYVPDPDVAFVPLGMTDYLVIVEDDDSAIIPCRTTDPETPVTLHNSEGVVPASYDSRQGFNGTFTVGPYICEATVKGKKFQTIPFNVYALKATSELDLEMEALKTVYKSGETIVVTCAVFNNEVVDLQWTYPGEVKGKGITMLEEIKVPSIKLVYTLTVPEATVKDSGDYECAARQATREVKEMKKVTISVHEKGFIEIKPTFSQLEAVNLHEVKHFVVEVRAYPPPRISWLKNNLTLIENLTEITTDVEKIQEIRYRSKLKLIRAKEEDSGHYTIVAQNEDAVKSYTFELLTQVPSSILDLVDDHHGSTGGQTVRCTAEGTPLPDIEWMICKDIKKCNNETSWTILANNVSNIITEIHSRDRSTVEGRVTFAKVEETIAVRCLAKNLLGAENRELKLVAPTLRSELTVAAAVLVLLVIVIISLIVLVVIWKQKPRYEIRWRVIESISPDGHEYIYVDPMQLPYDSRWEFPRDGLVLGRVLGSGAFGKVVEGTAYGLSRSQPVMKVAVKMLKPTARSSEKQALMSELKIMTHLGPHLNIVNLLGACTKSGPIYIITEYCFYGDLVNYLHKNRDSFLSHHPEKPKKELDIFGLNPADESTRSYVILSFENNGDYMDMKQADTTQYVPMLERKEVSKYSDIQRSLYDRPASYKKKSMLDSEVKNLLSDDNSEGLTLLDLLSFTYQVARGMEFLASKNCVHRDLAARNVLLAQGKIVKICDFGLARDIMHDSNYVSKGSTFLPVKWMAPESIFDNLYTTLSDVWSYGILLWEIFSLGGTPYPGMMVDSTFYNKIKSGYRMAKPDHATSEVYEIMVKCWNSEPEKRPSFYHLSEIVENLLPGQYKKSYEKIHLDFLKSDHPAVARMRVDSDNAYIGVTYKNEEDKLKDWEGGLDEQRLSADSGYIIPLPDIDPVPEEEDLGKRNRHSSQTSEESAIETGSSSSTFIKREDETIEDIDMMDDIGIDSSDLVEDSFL

[9] = molecular target: Cyclin-dependent kinase 5 (Homo sapiens, UniProt Q00535); format: functional;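 note: CDK5 measured as one member of a kinase profiling panel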
Chain of Cyclin-dependent kinase 5 (Q00535 whole entry): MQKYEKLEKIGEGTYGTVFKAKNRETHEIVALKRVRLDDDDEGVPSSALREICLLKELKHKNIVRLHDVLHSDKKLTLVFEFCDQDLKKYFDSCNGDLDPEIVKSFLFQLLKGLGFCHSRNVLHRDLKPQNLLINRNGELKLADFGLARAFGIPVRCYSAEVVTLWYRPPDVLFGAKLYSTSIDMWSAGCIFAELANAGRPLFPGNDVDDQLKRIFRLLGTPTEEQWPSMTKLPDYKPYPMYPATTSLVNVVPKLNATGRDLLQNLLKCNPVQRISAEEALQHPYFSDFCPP

[10] = molecular target: Tyrosine-protein kinase receptor TYRO3 (Homo sapiens, UniProt Q06418); format: functional;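 note: TYRO3 value obtained as one member of a kinome-wide profiling panel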
Chain of Tyrosine-protein kinase receptor TYRO3 (Q06418 whole entry): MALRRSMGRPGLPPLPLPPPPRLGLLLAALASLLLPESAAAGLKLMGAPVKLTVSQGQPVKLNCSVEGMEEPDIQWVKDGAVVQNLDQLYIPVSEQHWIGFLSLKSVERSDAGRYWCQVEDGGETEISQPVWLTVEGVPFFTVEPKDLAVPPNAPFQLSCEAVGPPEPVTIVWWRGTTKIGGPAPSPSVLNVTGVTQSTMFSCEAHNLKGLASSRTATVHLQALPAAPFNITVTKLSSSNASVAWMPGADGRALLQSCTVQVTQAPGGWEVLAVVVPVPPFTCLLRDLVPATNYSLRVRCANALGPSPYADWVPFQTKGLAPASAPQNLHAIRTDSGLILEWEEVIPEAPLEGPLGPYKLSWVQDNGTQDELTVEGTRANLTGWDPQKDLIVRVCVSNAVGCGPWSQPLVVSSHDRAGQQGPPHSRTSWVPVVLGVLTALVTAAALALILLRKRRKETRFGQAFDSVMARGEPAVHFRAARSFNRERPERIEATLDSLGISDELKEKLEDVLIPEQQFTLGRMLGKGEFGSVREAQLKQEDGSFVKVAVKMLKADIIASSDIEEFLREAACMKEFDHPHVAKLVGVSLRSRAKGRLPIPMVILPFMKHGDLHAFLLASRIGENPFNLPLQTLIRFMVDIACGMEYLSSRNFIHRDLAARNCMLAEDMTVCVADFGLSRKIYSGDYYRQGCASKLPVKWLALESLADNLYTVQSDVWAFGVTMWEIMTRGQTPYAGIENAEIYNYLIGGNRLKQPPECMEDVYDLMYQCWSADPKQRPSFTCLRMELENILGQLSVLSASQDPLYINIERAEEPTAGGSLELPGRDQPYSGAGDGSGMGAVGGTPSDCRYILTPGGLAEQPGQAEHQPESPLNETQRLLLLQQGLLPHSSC

[11] = molecular target: T1, Endoribonuclease toxin MazF (Escherichia coli K-12, UniProt P0AE70); experiment: fluorescent RNA oligo signal without MazF, dose response, counter-screen for MazEF activator project, biochemical, fluorescence, single-stranded RNase substrate (AID 588502); format: functional
T1 sequence (P0AE70 whole entry): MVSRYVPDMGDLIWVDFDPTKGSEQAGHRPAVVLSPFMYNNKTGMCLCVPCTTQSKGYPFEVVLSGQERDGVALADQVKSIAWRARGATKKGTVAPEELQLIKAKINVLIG

Streptokinase A = molecular target: T2, Streptokinase A (Streptococcus pyogenes serotype M1, UniProt P10520); experiment: S. pyogenes streptokinase expression inhibitors, potency, dose response, plasminogen activation absorbance, OD405 (AID 1914); format: functional, Streptococcus pyogenes M1 GAS;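 note: secreted streptokinase activity via plasminogen activation per viability signal from cell pellet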
T2 sequence (P10520 whole entry): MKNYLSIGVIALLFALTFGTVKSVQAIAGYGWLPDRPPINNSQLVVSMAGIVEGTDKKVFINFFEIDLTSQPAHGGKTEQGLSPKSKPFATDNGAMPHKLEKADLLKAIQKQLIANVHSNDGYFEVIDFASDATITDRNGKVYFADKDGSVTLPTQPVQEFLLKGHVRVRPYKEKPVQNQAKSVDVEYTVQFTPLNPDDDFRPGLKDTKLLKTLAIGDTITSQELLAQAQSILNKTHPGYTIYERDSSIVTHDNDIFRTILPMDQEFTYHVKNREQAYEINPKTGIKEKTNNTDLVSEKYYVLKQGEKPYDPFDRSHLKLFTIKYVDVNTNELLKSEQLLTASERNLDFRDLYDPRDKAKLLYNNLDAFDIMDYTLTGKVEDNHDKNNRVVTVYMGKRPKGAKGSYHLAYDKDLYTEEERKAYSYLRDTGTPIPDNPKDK

Streptococcus = experiment: Group A Streptococcus viability loss, dose response, counter-screen for streptokinase expression inhibitor project, luminescence, BacTiterGlo (AID 1915); format: functional, organism-based;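 note: potency for reduction of bacterial viability or growth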
[12] = test system: Streptococcus sp. 'group A'; experiment: growth inhibition of control SK(-) GAS strain, dose response, counter-screen for streptokinase expression inhibitor project, luminescence, kanamycin, BacTiterGlo, confirmation (AID 1900); format: functional, organism-based
[13] = molecular target: T1, Endoribonuclease toxin MazF; experiment: MazF toxin RNase activators, dose response, biochemical, fluorescence, single-stranded RNA substrate, uHTS hits (AID 588481); format: functional
Galanin receptor type 2 = Galanin receptor type 2 (Homo sapiens, UniProt O43603); experiment: Dose Response cell-based high-throughput screening assay to identify antagonists of galanin receptor 2 (GALR2). [Related pubchem assays: 828, 866 ]; format: functional
Chain of Galanin receptor type 2 (O43603 whole entry): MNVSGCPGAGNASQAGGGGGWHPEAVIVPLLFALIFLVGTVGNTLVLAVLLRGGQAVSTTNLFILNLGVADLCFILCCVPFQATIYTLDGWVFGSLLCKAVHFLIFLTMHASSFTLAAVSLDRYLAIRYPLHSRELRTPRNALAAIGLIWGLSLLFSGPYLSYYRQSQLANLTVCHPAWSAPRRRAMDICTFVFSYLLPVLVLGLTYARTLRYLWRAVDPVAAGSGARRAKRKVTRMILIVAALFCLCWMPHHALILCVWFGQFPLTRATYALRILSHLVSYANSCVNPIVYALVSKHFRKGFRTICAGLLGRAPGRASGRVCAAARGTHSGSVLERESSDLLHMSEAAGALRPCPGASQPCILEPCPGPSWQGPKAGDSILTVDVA

Chain of Protein disulfide-isomerase (P07237 whole entry): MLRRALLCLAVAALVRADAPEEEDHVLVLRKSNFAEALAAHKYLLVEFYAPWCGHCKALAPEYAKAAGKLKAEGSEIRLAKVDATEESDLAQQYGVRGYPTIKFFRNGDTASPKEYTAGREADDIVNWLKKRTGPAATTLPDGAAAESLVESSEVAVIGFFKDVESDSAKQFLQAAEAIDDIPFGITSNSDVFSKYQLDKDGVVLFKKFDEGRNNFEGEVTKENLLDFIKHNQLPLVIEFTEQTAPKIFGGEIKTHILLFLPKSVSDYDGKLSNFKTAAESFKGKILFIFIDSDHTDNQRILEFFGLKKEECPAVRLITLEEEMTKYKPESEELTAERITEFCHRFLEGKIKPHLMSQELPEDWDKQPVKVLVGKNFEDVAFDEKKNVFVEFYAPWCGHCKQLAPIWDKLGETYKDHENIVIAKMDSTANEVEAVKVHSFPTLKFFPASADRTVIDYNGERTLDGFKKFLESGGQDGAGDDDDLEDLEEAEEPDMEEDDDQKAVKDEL

SMILES: C[C@@H]1CN([C@H](C)CO)C(=O)c2cccc(NS(C)(=O)=O)c2O[C@H]1CN(C)Cc1ccc(Oc2ccccc2)cc1
- AC50 [1]: 18.8 µM (active)

SMILES: CC(=O)Nc1ccc(/C(C)=N/NC(=O)C2CCCC2)cc1
- AC50 [2]: 126 µM (active)
- EC50 [3]: 11.3 µM (active)

SMILES: Nc1ncnc2c1N=C(c1ccc(NC(=O)Nc3ccc(F)c(C(F)(F)F)c3)cc1)CCN2
- Ki [4]: 3.16 µM (active)
- Ki [5]: 126 nM (active)

SMILES: CCCCNC(=O)CCc1nc(-c2ccc(C(C)(C)C)cc2)no1
- IC50 (HEK293 [6]): > 80 µM (inactive)
- IC50 (Jurkat): > 79 µM (inactive)
- IC50 (HEK293 [7]): 14.5 µM (active)

SMILES: CC(=O)n1nc(N)c2ccc(Br)cc21
- Ki [8]: 2.51 µM (active)
- Ki [9]: 1.58 µM (active)
- Ki [10]: 2.51 µM (active)

SMILES: O=C(Cc1cccs1)Nc1cccc(-c2nc3cc4ccccc4cc3[nH]2)c1
- EC50 [11]: > 99 µM (inactive)
- EC50 (Streptokinase A): > 150 µM (not active)
- EC50 (Streptococcus): 14.9 µM (active)
- EC50 [12]: 4.51 µM (active)
- EC50 [13]: > 99 µM (inactive)
- IC50 (Galanin receptor type 2): > 42 µM (not active)
